Where two headings read alike, the source gives them in different places.
Experiments:
Estrogen Receptor ERα [1] = target: T1, Estrogen Receptor ERα (Homo sapiens, UniProt P03372); assay: cell-based; conditions: for EC10, ERα (M): 10% of maximum effect of E2; for EC10, linear transformed / EC10, linear / EC10: in M; for Efficacy % / EC10 / REPBPA: This Study; for EC10: ERα; for REPBPA: relative estrogenic potency vs BPA; for EC10, ERα: effect; for log(1/EC10) ERα: input of the ToxPi score, values up to 1.00; for SR-ScoreERα: SR-Score, sigma k=1, x=5; for Specificity ratio (SRbaseline) SRERα: against baseline cytotoxicity; for Specificity ratio (SRcytotoxicity) SRERα: against experimental cytotoxicity; for Relative effect potency REPERα: relative to BPA
T1 sequence (P03372 311-547 limits assumed): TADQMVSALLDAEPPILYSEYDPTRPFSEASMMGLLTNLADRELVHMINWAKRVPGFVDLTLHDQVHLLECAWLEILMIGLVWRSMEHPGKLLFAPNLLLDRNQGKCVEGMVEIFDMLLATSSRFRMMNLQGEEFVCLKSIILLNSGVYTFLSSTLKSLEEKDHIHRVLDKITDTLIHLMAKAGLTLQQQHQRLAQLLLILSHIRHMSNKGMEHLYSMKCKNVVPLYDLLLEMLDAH
Summary of the method: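 ERα-UAS-bla GripTite and PPARγ-UAS-bla reporter cells were seeded in assay medium with 2% charcoal-stripped FBS and held 24 h at 37 °C before dosing. Viability came from IncuCyte confluency before and after exposure. EC10 used only concentrations below IC10; Emax% is the log-logistic curve maximum relative to the reference chemical.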

Estrogen Receptor ERα [2] = target: T1, Estrogen Receptor ERα; assay: aCYP oxidation followed by ERα-UAS-bla GripTite assay (TK-Ratio of effect); format: cell-based; conditions: for EC10, after oxidation / EC10, before oxidation: ERα, in M; for EC10, after oxidation: after abiotic CYP catalyst; for TKERα: TKERα-Ratio
Protocol: Cell culture conditions and bioassay protocols including response detection are provided in Text S2.1–2.4 and Table S3. − Cell viability was determined from cell confluency using an IncuCyte S3 Live-Cell Analysis System (Sartorius AG, Essen, Germany) before and after exposure, except for SH-SY5Y cells (live–dead staining with Nuclear Green LcS1 and propidium iodide, Abcam, UK). For metabolic activation experiments, cell viability was assessed using the ToxBLAzer DualScreen Kit (Thermo Fisher Scientific) to capture the remaining toxicity in ERα-UAS-bla GripTite after treatment with the aCYP catalyst (details in Text S2.4). […]
The TK-Ratio method was used to evaluate the impact of abiotic CYP oxidation on the potency of tested compounds. […]
For experiments with the preceding aCYP activation, ERα cell viability was additionally calculated from the readout of the ToxBLAzer reagent. The ToxBLAzer assay was conducted following the manufacturer's instructions (Thermo Fisher, Waltham, MA, U.S.).13 Fluorescence intensity was recorded at the start of the assay ( Fwavelength(0h)) and after a 2-hour incubation at […]
Cell viability was assessed based on the red fluorescence signal at 665 nm, applying eq. S11 for normalization.
Cell viability = F665nm(2h, sample)-F665nm(0h, average cell-free) (S11) F665nm(2h, average unexposed)-F665nm(0h, average cell-free) […]
the specific endpoint to avoid artifacts from cytotoxicity burst. 15
S2.5: Concentration-response curves (CRCs)
To avoid bias from cytotoxicity burst at higher concentrations, all concentrations exceeding the IC10 for cytotoxicity were excluded in the CRC modeling of effects but otherwise cytotoxicity and effects were fitted with the same model equations (response stands for cytotoxicity or effect). For ERα, AhR, ARE and PPARγ preferably a linear model was fitted to the linear portion of CRC up to maximum 30% effect (eq. S12),16 but in some cases it was necessary to choose a sigmoidal log-concentration-response model, specifically a log-logistic model (eq. S13), to derive effect concentrations and cytotoxicity. For mitochondrial toxicity and neurotoxicity, the […]
are not reporter gene assays. Common practice when using log-logistic models, e.g., the model implemented in tcpl package in R,17, 18 is that the minima and maxima are also fitted and only median effect concentrations AC50 are derived. […]
concentrations (EC10) for both linear and log-sigmoidal CRCs to allow absolute comparisons at the same effect level and for TR and SR -analysis. This was done using the AutomatedBioassayScreening19 published by Braun et al.,20 which also included an algorithm to choose the best model between eq. S12 and eq. S13.
Response (%) = slope × C (S12) […]
logEC =logEC − 1 ∙log (max−min − 100%) (S14)

[3] = Octanol-water partition constant (log Kow) measurement, Sirius T3 potentiometric log P; format: physicochemical; conditions: experimental, this study
Protocol: Physicochemical properties provide input parameters for the baseline toxicity model. Acidity constants (pK a) and octanol–water partition constants of the neutral species (K ow) were measured with a Sirius T instrument from Pion Inc. (Sussex, UK) (Text S1.2 and Table S1). A detailed description of the pK a and K ow measurements can be found in literature. , […]
S1.2: pKa and log Kow measurements […]
titrator (Pion Inc., Sussex, U.K.). […]
UV absorbance. For log Kow measurement, approximately 1 mg of test chemical was added to a sample vial and the measurement was done automatically via the potentiometric log P protocol. Briefly, each compound is titrated thrice in an immiscible biphasic system of octanol and phosphate buffer solution and pH is continuously recorded. The shift in p Ka -values was used to estimate the log Kow values.2, 3 Data processing was performed with Sirius T3 Refine software (version 2.0.0.0.), and the final p Ka and log Kow values were calculated as the average of three titrations. To ensure reproducibility, measurements were conducted on at least two

[4] = read-out: Emax%ERα, maximum efficacy relative to E2
[5] = Bioassay ERα, dosing range high
[6] = Bioassay ERα, dosing range high, linear model fit
[7] = Bioassay ERα, dosing range high, log-logistic model fit
[8] = Bioassay ERα, dosing range low, linear model fit
[9] = Bioassay ERα, dosing range low, log-logistic model fit

SMILES	EC10, ERα (M) (Estrogen Receptor ERα [1])	Efficacy % (Estrogen Receptor ERα [1])	EC10 (Estrogen Receptor ERα [1])	REPBPA (Estrogen Receptor ERα [1])	EC10, ERα (Estrogen Receptor ERα [1])	log(1/EC10) ERα (Estrogen Receptor ERα [1])	Emax (Estrogen Receptor ERα [1]; [4])	EC10, after oxidation (Estrogen Receptor ERα [2]; Table S10)	EC10, before oxidation (Estrogen Receptor ERα [2]; Table S10)	TKERα (Estrogen Receptor ERα [2]; Table S10)	log Kow used [3]	EC10, linear transformed (Estrogen Receptor ERα [1]; [5])	EC10, linear (Estrogen Receptor ERα [1]; [6])	logEC10 (Estrogen Receptor ERα [1]; [7])	EC10, linear transformed (Estrogen Receptor ERα [1]; Bioassay ERα, dosing range low)	EC10, linear (Estrogen Receptor ERα [1]; [8])	logEC10 (Estrogen Receptor ERα [1]; [9])	SR-ScoreERα (Estrogen Receptor ERα [1])	Specificity ratio (SRbaseline) SRERα (Estrogen Receptor ERα [1])	Specificity ratio (SRcytotoxicity) SRERα (Estrogen Receptor ERα [1])	also measured
Oc1ccc(Cc2ccc(O)cc2)cc1 [BPF, Bis(4-hydroxyphenyl)methane]	9.95 × 10^–7 M	60.05%	9.95E-07	3.72E-01	995 nM	0.77	50 to 60%	1.00E-06	9.67E-07	0.964	2.71	–	–	–	–	–	–	–	–	–	EC10, linear transformed (Estrogen Receptor ERα [1]; Bioassay ERα, dosing range all): 9.67E-07; EC10, linear (Estrogen Receptor ERα [1]; Bioassay ERα, dosing range all, linear model fit): 1.45E-06; logEC10 (Estrogen Receptor ERα [1]; Bioassay ERα, dosing range all, log-logistic model fit): -6.00; Emax%ERα (Estrogen Receptor ERα [1]; maximum efficacy relative to E2): 60%; EC10, after oxidation (Estrogen Receptor ERα [2]; Table S11): 1.36E-06; EC10, before oxidation (Estrogen Receptor ERα [2]; Table S11): 1.26E-06; TKERα (Estrogen Receptor ERα [2]; Table S11): 0.93
CCC(C)(c1ccc(O)cc1)c1ccc(O)cc1 [BPB, 4,4'-(Butane-2,2-diyl)diphenol]	1.35 × 10^–7 M	23.67%	1.35E-07	2.74E+00	135 nM	0.88	24%	3.59E-07	1.07E-07	0.2982	3.72	5.57E-08	8.29E-08	-7.27	1.07E-07	1.35E-07	-6.97	1.00	66.42	154.61	REPBPA,ERα (relative effect potency in relation to BPA) (Estrogen Receptor ERα [1]; EC10,BPA/EC10,BPx): 3; Relative effect potency REPERα (Estrogen Receptor ERα [1]): 2.74
O=S(=O)(c1ccc(O)cc1)c1ccc(O)cc1 [BPS, 4,4'-Sulfonyldiphenol]	1.43 × 10^–6 M	65.69%	1.43E-06	2.59E-01	1430 nM	0.75	66%	1.48E-06	1.65E-06	1.115	1.97	1.15E-06	1.20E-06	-5.97	–	–	–	–	–	–	EC10, linear transformed (Estrogen Receptor ERα [1]; ERα bioassay, dosing range low): 1.65E-06; EC10, linear (Estrogen Receptor ERα [1]; ERα bioassay, dosing range low, linear model): 1.43E-06; logEC10 (Estrogen Receptor ERα [1]; ERα bioassay, dosing range low, log-logistic model): -5.76
COC(=O)C(c1ccc(O)cc1)c1ccc(O)cc1 [Bz, Methyl bis(4-hydroxyphenyl)acetate]	1.06 × 10^–6 M	32.40%	1.06E-06	3.49E-01	1060 nM	0.76	–	1.36E-06	9.90E-07	0.7263	2.06	1.23E-08	7.84E-07	-6.83	9.90E-07	1.06E-06	-6.00	1.00	245.73	956.87	SRcytotoxicity (ERα) (Estrogen Receptor ERα [1]; IC10/EC10): 957; Emax (Estrogen Receptor ERα [1]; read-out: Emax%ERα): 32%; Relative effect potency REPERα (Estrogen Receptor ERα [1]): 0.35
